Results published in ChEMBL document CHEMBL5705903, “A DNA Hypomethylation Signature Predicts Antitumor Activity of LSD1 Inhibitors in SCLC” (Cancer Cell, 2015).
Activity calls are given as the source filed them. The calls are words filed in the database; no cut-off is given here.

Tests used:
[1] = Effect on cleaved PARP level in human COLO-668 cells assessed as fold change at 100 nM measured after 10 days by Western blot analysis (reference value: 1.00); assay type: functional; settings: time 10 day
[2] = Effect on cleaved PARP level in human NCI-H146 cells assessed as relative expression at 10 nM measured after 10 days by Western blot analysis (reference value: 0.27); assay type: functional; settings: time 10 day
[3] = Effect on cleaved PARP level in human NCI-H146 cells assessed as fold change at 10 nM measured after 10 days by Western blot analysis (reference value: 1.00); assay type: functional; settings: time 10 day
[4] = Effect on cleaved PARP level in human NCI-H1694 cells assessed as fold change at 1000 nM measured after 14 days by Western blot analysis (reference value: 1.00); assay type: functional; settings: time 14 day
NCI-H69 [5] = assay: Antitumor activity against human NCI-H69 cells xenografted in nude mouse assessed as tumor growth inhibition at 0.5 mg/kg, po administered daily measured twice weekly relative to control; assay type: functional; settings: read-out: TGI
NCI-H526 [6] = assay: Effect on cell cycle in human NCI-H526 cells assessed as cell accumulation at […] phase upto 1000 nM measured for 7 to 14 days by flow cytometry; assay type: functional, cell-based; settings: time 7-14 day
[7] = Effect on cleaved PARP level in human NCI-H510 cells assessed as fold change at 100 nM measured after 7 days by Western blot analysis (reference value: 1.00); assay type: functional, NCI-H510A; settings: time 7 day
SHP77 = assay: Effect on NSE gene expression in human SHP77 cells at 1 uM measured after 4 to 7 days by qRT-PCR analysis; assay type: functional, cell-based; settings: time 4-7 day
[8] = Effect on cleaved PARP level in human NCI-H1694 cells assessed as relative expression at 10 nM measured after 7 days by Western blot analysis (reference value: 0.25); assay type: functional; settings: time 7 day
[9] = Toxicity in mouse xenografted with human NCI-H1417 cells assessed as grooming behaviour at 1.5 mg/kg, po administered daily measured for 30 days; assay type: organism-based; settings: in vivo, 720 h, time 30 day
[10] = Effect on cleaved PARP level in human NCI-H1417 cells assessed as fold change at 1000 nM measured after 7 days by Western blot analysis (reference value: 1.00); assay type: functional; settings: time 7 day
[11] = Effect on cleaved PARP level in human NCI-H1694 cells assessed as fold change at 1000 nM measured after 7 days by Western blot analysis (reference value: 1.00); assay type: functional; settings: time 7 day
[12] = Effect on cleaved PARP level in human NCI-H1417 cells assessed as fold change at 10 nM measured after 7 days by Western blot analysis (reference value: 1.00); assay type: functional; settings: time 7 day
NCI-H69 [13] = assay: Antitumor activity against human NCI-H69 cells xenografted in nude mouse assessed as mean tumor volume at 0.5 mg/kg, po administered daily measured twice weekly (reference value: 1063 +/- 161 mm3); assay type: functional
[14] = Effect on cleaved PARP level in human NCI-H889 cells assessed as relative expression at 10 nM measured after 7 days by Western blot analysis (reference value: 0.34); assay type: functional; settings: time 7 day
[15] = Effect on cleaved PARP level in human NCI-H69 cells assessed as relative expression at 10 nM measured after 14 days by Western blot analysis (reference value: 0.03); assay type: functional; settings: time 14 day
D-amino-acid oxidase = D-amino-acid oxidase (Homo sapiens, UniProt P14920)
Sequence of D-amino-acid oxidase (P14920 whole entry, looked up): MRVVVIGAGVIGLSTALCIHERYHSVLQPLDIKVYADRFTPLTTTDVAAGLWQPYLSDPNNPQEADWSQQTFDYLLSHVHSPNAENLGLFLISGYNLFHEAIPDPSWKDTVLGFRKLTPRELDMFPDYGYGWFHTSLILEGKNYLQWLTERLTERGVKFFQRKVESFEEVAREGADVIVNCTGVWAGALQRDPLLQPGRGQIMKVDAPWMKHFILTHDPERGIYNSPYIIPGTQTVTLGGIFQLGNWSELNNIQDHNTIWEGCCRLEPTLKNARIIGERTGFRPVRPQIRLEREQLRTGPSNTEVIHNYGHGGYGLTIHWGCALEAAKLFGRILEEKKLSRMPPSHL
Description: Binding affinity to D-amino acid oxidase (unknown origin) assessed as inactivation constant

[16] = Effect on cleaved PARP level in human NCI-H146 cells assessed as relative expression at 10 nM measured after 7 days by Western blot analysis (reference value: […]); assay type: functional; settings: time 7 day
[17] = Effect on cleaved PARP level in human NCI-H524 cells assessed as relative expression at 100 nM measured after 7 days by Western blot analysis (reference value: 0.63); assay type: functional; settings: time 7 day
[18] = Effect on cleaved PARP level in human NCI-H889 cells assessed as relative expression at 1000 nM measured after 10 days by Western blot analysis (reference value: 0.33); assay type: functional; settings: time 10 day
[19] = Effect on cleaved PARP level in human NCI-H146 cells assessed as relative expression at 1000 nM measured after 7 days by Western blot analysis (reference value: […]); assay type: functional; settings: time 7 day
[20] = Effect on cleaved PARP level in human NCI-H524 cells assessed as fold change at 1000 nM measured after 7 days by Western blot analysis (reference value: 1.00); assay type: functional; settings: time 7 day
[21] = Effect on cleaved PARP level in human NCI-H524 cells assessed as fold change at 100 nM measured after 10 days by Western blot analysis (reference value: 1.00); assay type: functional; settings: time 10 day
[22] = Effect on cleaved PARP level in human NCI-H1417 cells assessed as fold change at 100 nM measured after 7 days by Western blot analysis (reference value: 1.00); assay type: functional; settings: time 7 day
NCI-H526 [23] = assay: In vivo inhibition of LSD1 in human NCI-H526 cells xenografted in nude mouse assessed as change in UMODL1 gene expression measured after 24 hrs post single administration by qRT-PCR analysis; assay type: functional, organism-based; settings: dose 0.06-135 mg/kg
NCI-H146 [24] = assay: Effect on NSE gene expression in human NCI-H146 cells at 1 uM measured after 4 to 7 days by qRT-PCR analysis; assay type: functional, cell-based; settings: time 4-7 day
[25] = Effect on cleaved PARP level in human NCI-H889 cells assessed as relative expression at 100 nM measured after 14 days by Western blot analysis (reference value: 0.94); assay type: functional; settings: time 14 day
[26] = Effect on cleaved PARP level in human COLO-668 cells assessed as fold change at 1000 nM measured after 10 days by Western blot analysis (reference value: 1.00); assay type: functional; settings: time 10 day
NCI-H1417 = assay: Cell growth inhibition of human NCI-H1417 cells measured for 4 days; assay type: functional, cell-based; settings: time 4.0 day
NCI-H446 = assay: Effect on NSE gene expression in human NCI-H446 cells at 1 uM measured after 4 to 7 days by qRT-PCR analysis; assay type: functional, cell-based; settings: time 4-7 day
[27] = Effect on cleaved PARP level in human NCI-H524 cells assessed as fold change at 10 nM measured after 14 days by Western blot analysis (reference value: 1.00); assay type: functional; settings: time 14 day
NCI-H146 [28] = assay: Effect on NCAM gene expression in human NCI-H146 cells at 1 uM measured after 4 days by qRT-PCR analysis; assay type: functional, cell-based; settings: time 4.0 day
NCI-H510A = assay: Antitumor activity against human NCI-H510A cells xenografted in nude mouse assessed as mean tumor volume at 1.5 mg/kg, po administered daily measured twice weekly (reference value: 1028 +/- 182 mm3); assay type: functional
[29] = Effect on cleaved PARP level in human NCI-H889 cells assessed as relative expression at 10 nM measured after 10 days by Western blot analysis (reference value: 0.33); assay type: functional; settings: time 10 day
[30] = Toxicity in dog assessed as multifocal hemorrhage in organs measured for 28 days; set-up: species or system Canis lupus familiaris; settings: in vivo, 672 h, time 28 day
[31] = biological target: Lysine-specific histone demethylase 1A (Homo sapiens, UniProt O60341)
Description: Binding affinity to LSD1 (unknown origin) using H3K4me2 as substrate assessed as inactivation constant by HRP-coupled amplex red assay

In the case of `O=C(O)c1ccc(CN2CCC(CN[C@@H]3C[C@H]3c3ccccc3)CC2)cc1` [GSK2879552], the “fold change (FC)” value [1] is reported as 0.69, the Activity [2] is reported as 0.33 and the “fold change (FC)” value [3] is reported as 1.24. For the same compound, the “fold change (FC)” value [4] was 0.84, the inhibition in vivo at 0.5 mg/kg (NCI-H69 [5]) was 51% and the Activity (NCI-H526 [6]) was “inactive”. For the same compound, the “fold change (FC)” value [7] was 1.84, the Activity (SHP77) was “inactive” and the Activity [8] was 0.3. The Activity [9] was “Non-Toxic”, the “fold change (FC)” value [10] was 3.48 and the “fold change (FC)” value [11] was 1.44. The “fold change (FC)” value [12] was 1.53, the Activity (NCI-H69 [13]) was 592 mm3 and the Activity [14] was 0.03. It also gave an Activity [15] of 0.05, a Kinact (D-amino-acid oxidase) of 0.12 min⁻¹ and an Activity [16] of 2.37. It also gave an Activity [17] of 0.6, an Activity [18] of 0.91 and an Activity [19] of 2.43. For the same compound, the “fold change (FC)” value [20] was 1.77, the “fold change (FC)” value [21] was 0.71 and the “fold change (FC)” value [22] was 2.85. For the same compound, the inhibition (NCI-H526 [23]) was “Dose-Dependent Effect”, the Activity (NCI-H146 [24]) was “inactive” and the Activity [25] was 2.36. The “fold change (FC)” value [26] was 0.59, the “growth inhibition (GI)” value (NCI-H1417) was “inactive” and the Activity (NCI-H446) was “inactive”. The “fold change (FC)” value [27] was 0.79, the Activity (NCI-H146 [28]) was “inactive” and the Activity (NCI-H510A) was 705 mm3. For the same compound, the Activity [29] was 0.55, the Activity [30] was “Toxic” and the Kinact [31] was 0.11 min⁻¹.
